# In patent US10322111B2, “Chemokine receptor binding heterocyclic compounds with enhanced efficacy” (Genzyme Corporation, priority 2001, dated 2019):
# Like-named read-outs stand apart in the source and are kept apart here.
# Tests used:
# [1] = system: unseparated and low density nucleated cells; details: 80 μg/kg s.c.; for % CHG, nucleated cellularity PBL-LD / % CHG, nucleated cellularity PBL-US / Fold Change Compared to TIME = 0, nucleated cellularity PBL-LD, MEAN / Fold Change Compared to TIME = 0, nucleated cellularity PBL-US, MEAN: average of 5 donors
compound,measurement,setting,value
"c1cc(CN2CCCNCCNCCCNCC2)ccc1CN1CCCNCCNCCCNCC1 [AMD3100, 1,1′-[1,4-phenylene-bis(methylene)]-bis-1,4,8,11-tetraazacyclotetradecane]","FOLD CHANGE COMPARED TO TIME = 0, nucleated cellularity PBL-LD","[1]; P1, T = 1 h after injection",2.07 fold
same,"FOLD CHANGE COMPARED TO TIME = 0, nucleated cellularity PBL-US","[1]; P1, T = 1 h after injection",2.54 fold
same,"FOLD CHANGE COMPARED TO TIME = 0, nucleated cellularity PBL-LD","[1]; P1, T = 3 h after injection",2.83 fold
same,"FOLD CHANGE COMPARED TO TIME = 0, nucleated cellularity PBL-US","[1]; P1, T = 3 h after injection",3.55 fold
same,"FOLD CHANGE COMPARED TO TIME = 0, nucleated cellularity PBL-LD","[1]; P1, T = 6 h after injection",4.07 fold
same,"FOLD CHANGE COMPARED TO TIME = 0, nucleated cellularity PBL-US","[1]; P1, T = 6 h after injection",3.97 fold
same,"FOLD CHANGE COMPARED TO TIME = 0, nucleated cellularity PBL-LD","[1]; P1, T = 9 h after injection",3.65 fold
same,"FOLD CHANGE COMPARED TO TIME = 0, nucleated cellularity PBL-US","[1]; P1, T = 9 h after injection",3.27 fold
same,"FOLD CHANGE COMPARED TO TIME = 0, nucleated cellularity PBL-LD","[1]; P1, T = 24 h after injection",1.01 fold
same,"FOLD CHANGE COMPARED TO TIME = 0, nucleated cellularity PBL-US","[1]; P1, T = 24 h after injection",1.21 fold
same,"FOLD CHANGE COMPARED TO TIME = 0, nucleated cellularity PBL-LD","[1]; P2, T = 1 h after injection",1.99 fold
same,"FOLD CHANGE COMPARED TO TIME = 0, nucleated cellularity PBL-US","[1]; P2, T = 1 h after injection",1.38 fold
same,"FOLD CHANGE COMPARED TO TIME = 0, nucleated cellularity PBL-LD","[1]; P2, T = 3 h after injection",3.25 fold
same,"FOLD CHANGE COMPARED TO TIME = 0, nucleated cellularity PBL-US","[1]; P2, T = 3 h after injection",2.74 fold
same,"FOLD CHANGE COMPARED TO TIME = 0, nucleated cellularity PBL-LD","[1]; P2, T = 6 h after injection",3.90 fold
same,"FOLD CHANGE COMPARED TO TIME = 0, nucleated cellularity PBL-US","[1]; P2, T = 6 h after injection",2.94 fold
same,"FOLD CHANGE COMPARED TO TIME = 0, nucleated cellularity PBL-LD","[1]; P2, T = 9 h after injection",4.43 fold
same,"FOLD CHANGE COMPARED TO TIME = 0, nucleated cellularity PBL-US","[1]; P2, T = 9 h after injection",3.30 fold
same,"FOLD CHANGE COMPARED TO TIME = 0, nucleated cellularity PBL-LD","[1]; P2, T = 24 h after injection",1.71 fold
same,"FOLD CHANGE COMPARED TO TIME = 0, nucleated cellularity PBL-US","[1]; P2, T = 24 h after injection",1.43 fold
same,"FOLD CHANGE COMPARED TO TIME = 0, nucleated cellularity PBL-LD","[1]; P3, T = 1 h after injection",1.48 fold
same,"FOLD CHANGE COMPARED TO TIME = 0, nucleated cellularity PBL-US","[1]; P3, T = 1 h after injection",1.38 fold
same,"FOLD CHANGE COMPARED TO TIME = 0, nucleated cellularity PBL-LD","[1]; P3, T = 3 h after injection",2.17 fold
same,"FOLD CHANGE COMPARED TO TIME = 0, nucleated cellularity PBL-US","[1]; P3, T = 3 h after injection",2.02 fold
same,"FOLD CHANGE COMPARED TO TIME = 0, nucleated cellularity PBL-LD","[1]; P3, T = 6 h after injection",2.27 fold
same,"FOLD CHANGE COMPARED TO TIME = 0, nucleated cellularity PBL-US","[1]; P3, T = 6 h after injection",2.74 fold
same,"FOLD CHANGE COMPARED TO TIME = 0, nucleated cellularity PBL-LD","[1]; P3, T = 9 h after injection",2.47 fold
same,"FOLD CHANGE COMPARED TO TIME = 0, nucleated cellularity PBL-US","[1]; P3, T = 9 h after injection",2.69 fold
same,"FOLD CHANGE COMPARED TO TIME = 0, nucleated cellularity PBL-LD","[1]; P3, T = 24 h after injection",0.79 fold
same,"FOLD CHANGE COMPARED TO TIME = 0, nucleated cellularity PBL-US","[1]; P3, T = 24 h after injection",0.96 fold
same,"FOLD CHANGE COMPARED TO TIME = 0, nucleated cellularity PBL-LD","[1]; P4, T = 1 h after injection",1.66 fold
same,"FOLD CHANGE COMPARED TO TIME = 0, nucleated cellularity PBL-US","[1]; P4, T = 1 h after injection",1.36 fold
same,"FOLD CHANGE COMPARED TO TIME = 0, nucleated cellularity PBL-LD","[1]; P4, T = 3 h after injection",2.82 fold
same,"FOLD CHANGE COMPARED TO TIME = 0, nucleated cellularity PBL-US","[1]; P4, T = 3 h after injection",2.46 fold
same,"FOLD CHANGE COMPARED TO TIME = 0, nucleated cellularity PBL-LD","[1]; P4, T = 6 h after injection",2.78 fold
same,"FOLD CHANGE COMPARED TO TIME = 0, nucleated cellularity PBL-US","[1]; P4, T = 6 h after injection",2.60 fold
same,"FOLD CHANGE COMPARED TO TIME = 0, nucleated cellularity PBL-LD","[1]; P4, T = 9 h after injection",2.48 fold
same,"FOLD CHANGE COMPARED TO TIME = 0, nucleated cellularity PBL-US","[1]; P4, T = 9 h after injection",2.24 fold
same,"FOLD CHANGE COMPARED TO TIME = 0, nucleated cellularity PBL-LD","[1]; P4, T = 24 h after injection",0.60 fold
same,"FOLD CHANGE COMPARED TO TIME = 0, nucleated cellularity PBL-US","[1]; P4, T = 24 h after injection",0.77 fold
same,"FOLD CHANGE COMPARED TO TIME = 0, nucleated cellularity PBL-LD","[1]; P5, T = 1 h after injection",2.10 fold
same,"FOLD CHANGE COMPARED TO TIME = 0, nucleated cellularity PBL-US","[1]; P5, T = 1 h after injection",1.76 fold
same,"FOLD CHANGE COMPARED TO TIME = 0, nucleated cellularity PBL-LD","[1]; P5, T = 3 h after injection",3.20 fold
same,"FOLD CHANGE COMPARED TO TIME = 0, nucleated cellularity PBL-US","[1]; P5, T = 3 h after injection",3.23 fold
same,"FOLD CHANGE COMPARED TO TIME = 0, nucleated cellularity PBL-LD","[1]; P5, T = 6 h after injection",5.30 fold
same,"FOLD CHANGE COMPARED TO TIME = 0, nucleated cellularity PBL-US","[1]; P5, T = 6 h after injection",4.04 fold
same,"FOLD CHANGE COMPARED TO TIME = 0, nucleated cellularity PBL-LD","[1]; P5, T = 9 h after injection",5.17 fold
same,"FOLD CHANGE COMPARED TO TIME = 0, nucleated cellularity PBL-US","[1]; P5, T = 9 h after injection",3.96 fold
same,"FOLD CHANGE COMPARED TO TIME = 0, nucleated cellularity PBL-LD","[1]; P5, T = 24 h after injection",1.12 fold
same,"FOLD CHANGE COMPARED TO TIME = 0, nucleated cellularity PBL-US","[1]; P5, T = 24 h after injection",0.99 fold
same,"% CHG, nucleated cellularity PBL-LD",[1]; T = 1 h after injection,86.2%
same,"% CHG, nucleated cellularity PBL-US",[1]; T = 1 h after injection,68.6%
same,"Fold Change Compared to TIME = 0, nucleated cellularity PBL-LD, MEAN",[1]; T = 1 h after injection,1.86 fold
same,"Fold Change Compared to TIME = 0, nucleated cellularity PBL-US, MEAN",[1]; T = 1 h after injection,1.69 fold
same,"% CHG, nucleated cellularity PBL-LD",[1]; T = 3 h after injection,185.6%
same,"% CHG, nucleated cellularity PBL-US",[1]; T = 3 h after injection,180.2%
same,"Fold Change Compared to TIME = 0, nucleated cellularity PBL-LD, MEAN",[1]; T = 3 h after injection,2.86 fold
same,"Fold Change Compared to TIME = 0, nucleated cellularity PBL-US, MEAN",[1]; T = 3 h after injection,2.80 fold
same,"% CHG, nucleated cellularity PBL-LD",[1]; T = 6 h after injection,266.3%
same,"% CHG, nucleated cellularity PBL-US",[1]; T = 6 h after injection,225.8%
same,"Fold Change Compared to TIME = 0, nucleated cellularity PBL-LD, MEAN",[1]; T = 6 h after injection,3.66 fold
same,"Fold Change Compared to TIME = 0, nucleated cellularity PBL-US, MEAN",[1]; T = 6 h after injection,3.26 fold
same,"% CHG, nucleated cellularity PBL-LD",[1]; T = 9 h after injection,264.3%
same,"% CHG, nucleated cellularity PBL-US",[1]; T = 9 h after injection,209.4%
same,"Fold Change Compared to TIME = 0, nucleated cellularity PBL-LD, MEAN",[1]; T = 9 h after injection,3.64 fold
same,"Fold Change Compared to TIME = 0, nucleated cellularity PBL-US, MEAN",[1]; T = 9 h after injection,3.09 fold
same,"% CHG, nucleated cellularity PBL-LD",[1]; T = 24 h after injection,4.6%
same,"% CHG, nucleated cellularity PBL-US",[1]; T = 24 h after injection,7.0%
same,"Fold Change Compared to TIME = 0, nucleated cellularity PBL-LD, MEAN",[1]; T = 24 h after injection,1.05 fold
same,"Fold Change Compared to TIME = 0, nucleated cellularity PBL-US, MEAN",[1]; T = 24 h after injection,1.07 fold
same,time post-administration at which elevation of the white blood cell count maximized,"white blood cells; human volunteers, 80 μg/kg s.c.",6 h
same,white blood cells,"white blood cells; volunteer P1, 1 Hr after 80 μg/kg s.c.",14.8 ×10^3 WBC's
same,white blood cells,"white blood cells; volunteer P1, 2 Hr after 80 μg/kg s.c.",21.4 ×10^3 WBC's
same,white blood cells,"white blood cells; volunteer P1, 4 Hr after 80 μg/kg s.c.",23.2 ×10^3 WBC's
same,white blood cells,"white blood cells; volunteer P1, 6 Hr after 80 μg/kg s.c.",26.2 ×10^3 WBC's
same,white blood cells,"white blood cells; volunteer P1, 9 Hr after 80 μg/kg s.c.",22.3 ×10^3 WBC's
same,white blood cells,"white blood cells; volunteer P1, 30 Min after 80 μg/kg s.c.",8.02 ×10^3 WBC's
same,white blood cells,"white blood cells; volunteer P1, Day 2 after 80 μg/kg s.c.",7.07 ×10^3 WBC's
same,white blood cells,"white blood cells; volunteer P2, 1 Hr after 80 μg/kg s.c.",8.93 ×10^3 WBC's
same,white blood cells,"white blood cells; volunteer P2, 2 Hr after 80 μg/kg s.c.",13.5 ×10^3 WBC's
